Measured values: PMC12596218 (Journal of Lipid Research, 2025)
pIC50: −log10 of the molar value. “And” between values parts separate entries of the source, which are not always exact repeats. Equal values may be shown once. Read-outs that look alike come from different tables or passages of the source. One block for each compound: values may come before it.

Experiments:
[1] = biological target: T1, OATP2B1 (Homo sapiens, UniProt O94956); assay: [3H]E1S transport inhibition assay in OATP2B1-HEK293 cells; format: cell-based; details: 200 nM [3H]E1S, 10 min; two independent experiments
T1 construct: stably transfected with the full open reading frames of human NTCP, ASBT, SOAT, OATP1B1, OATP1B3, OATP2B1, and murine Asbt (mAsbt); expressed in transfected cells; host or cells: HEK293, stably transfected (OATP2B1-HEK), tetracycline-induced
T1 sequence (O94956 1-709): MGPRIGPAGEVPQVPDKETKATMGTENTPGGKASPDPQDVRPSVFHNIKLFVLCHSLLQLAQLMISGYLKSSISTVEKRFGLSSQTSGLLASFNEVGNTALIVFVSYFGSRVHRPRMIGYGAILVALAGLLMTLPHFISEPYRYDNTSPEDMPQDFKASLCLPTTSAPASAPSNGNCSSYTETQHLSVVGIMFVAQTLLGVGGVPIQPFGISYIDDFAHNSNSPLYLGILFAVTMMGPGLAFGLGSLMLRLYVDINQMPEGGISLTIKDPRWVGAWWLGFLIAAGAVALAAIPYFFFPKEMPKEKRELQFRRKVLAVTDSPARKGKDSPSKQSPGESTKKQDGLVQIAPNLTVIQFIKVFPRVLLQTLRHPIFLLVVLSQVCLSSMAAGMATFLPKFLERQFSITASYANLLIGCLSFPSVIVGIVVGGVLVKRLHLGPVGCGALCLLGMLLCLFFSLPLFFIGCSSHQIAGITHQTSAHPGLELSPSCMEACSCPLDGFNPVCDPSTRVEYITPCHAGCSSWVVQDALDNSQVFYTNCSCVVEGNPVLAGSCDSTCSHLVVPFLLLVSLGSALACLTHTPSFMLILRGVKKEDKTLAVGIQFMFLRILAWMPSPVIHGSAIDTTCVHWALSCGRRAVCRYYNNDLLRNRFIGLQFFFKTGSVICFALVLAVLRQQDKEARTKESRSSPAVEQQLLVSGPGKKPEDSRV
Description: Human embryonic kidney HEK293 cells, stably transfected with the full open reading frames of human NTCP, ASBT, SOAT, OATP1B1, OATP1B3, OATP2B1, and murine Asbt (mAsbt) were used as reported ([18], [20], [21], [22], [23]). The NTCP, ASBT, and mAsbt constructs were C-terminally tagged with the FLAG epitope, and the SOAT construct was C-terminally tagged with green fluorescent protein. Non-transfected Flp-In HEK293 cells (Thermo Fisher Scientific) served as the control. All cell lines were maintained at 37°C, 5% CO2 and 95% humidity in DMEM/F-12 medium (Thermo Fisher Scientific) supplemented with 10% fetal calf serum (Sigma-Aldrich), 4 mM L-glutamine (PAA) and penicillin/streptomycin (PAA). Expression of the respective carrier protein was induced by tetracycline treatment at 1 μg/ml (Carl Roth GmbH + Co. KG).
Cells were seeded onto poly-L-lysine-coated 96-well plates, induced with 1 μg/ml tetracycline, and grown to confluence over 72 h at 37°C. Then, cells were washed with tempered (37°C) phosphate-buffered saline (PBS, containing 137.0 mM NaCl, 2.7 mM KCl, 1.5 mM KH2PO4, and 7.3 mM Na2HPO4, at pH 7.4) and preincubated with 80 μl sodium transport buffer (STB, containing 142.9 mM NaCl, 4.7 mM KCl, 1.2 mM MgSO4, 1.2 mM KH2PO4, 1.8 mM CaCl2, and 20.0 mM HEPES, at pH 7.4) for 5 min at 37°C. For inhibition studies, the medium was replaced by 80 μl STB containing the respective inhibitor or solvent alone and cells were further incubated for 5 min at 37°C. Transport experiments were started by adding 20 μl of a 5-fold concentrated substrate solution (solved in STB). For transport experiments under sodium-free conditions the same buffer composition was used as for STB, but sodium chloride was substituted with equimolar concentrations of choline chloride as previously reported ([20], [24]). Transport experiments were stopped by washing twice with ice-cold PBS and the plates were kept cool on ice until adding the lysis buffer [1% sodium dodecyl sulfate (SDS) and 1 N NaOH]. Then, the cell-associated radioactivity of the respective tritium-labeled substrate or ligand was quantified by liquid scintillation counting using MicroScint-20 scintillation cocktail (Revvity) in a Packard Microplate Scintillation Counter TopCount NXT (Packard Instrument Company). For IC50 transport inhibition measurements, the mean uptake values measured in non-carrier-expressing HEK293 control cells were defined as 0% uptake control and were subtracted from all other values. Values from cells without inhibitor and solvent alone were set to 100%. Finally, all net transport data were expressed as uptake or binding as % of control. All transport or inhibition graphs were generated with GraphPad Prism 6 (GraphPad). Determination of half maximal inhibitory concentrations (IC50) was done by nonlinear regression analysis using the equation log (inhibitor) versus response—variable slope settings. All data points of the IC50 curves represent means ± SD of quadruplicate determinations. For Km measurements, BS uptake in the absence of sodium was regarded as carrier-independent unspecific uptake and was subtracted from the transport rates in the presence of sodium to obtain carrier-specific uptake rates (indicated as dashed lines). From the specific uptake rates, Michaelis Menten Km values were calculated by non-linear regression analysis.

[2] = test system: ASBT; details: cited from earlier work; for pIC50: read-out: IC50 ASBT inhibition
[3] = cited from earlier work

Structure (SMILES): CCCCC1(CCCC)CS(=O)(=O)c2ccc(N(C)C)cc2[C@@H](c2ccc(OCc3ccc(C[N+]45CCN(CC4)CC5)cc3)cc2)[C@H]1O [maralixibat]
pIC50 [1]: 5.12 and 5.22
pIC50 ([2]; ASBT expressed in baby hamster kidney H-14 cell line, ref FDA NDA 214662 Livmarli): 9.55
Cmax, clinical drug concentration ([3]; 45 mg cohort study, fasted, ref EMA Livmarli assessment report variation): 1.62 ng/mL
Cmax, clinical drug concentration ([3]; 45 mg cohort study, fed, ref EMA Livmarli assessment report variation): 0.57 ng/mL

Structure (SMILES): CCCCC1(CCCC)CS(=O)(=O)c2ccc(N(C)C)cc2[C@@H](c2ccc(OCCCC[N+]34CCN(CC3)CC4)cc2)[C@H]1O [SC-435]
pIC50 [1]: < 5.00 and 4.39 and 4.44

Structure (SMILES): CCCC[C@]1(CC)CS(=O)(=O)c2cc(CNC(CC(=O)O)CC(=O)O)c(OC)cc2[C@@H](c2ccccc2)N1 [linerixibat]
pIC50 [1]: < 5.00 and 4.58 and 4.65

The next lines start with results.

pIC50 [1]: 5.29 and 5.40
Structure (SMILES): CCCCC1(CCCC)CN(c2ccccc2)c2cc(SC)c(OCC(=O)N[C@@H](C(=O)N[C@@H](CC)C(=O)O)c3ccc(O)cc3)cc2S(=O)(=O)N1 [odevixibat]
pIC50 ([2]; ASBT-expressing HEK293 cells, ref EMA EPAR Risk management plan for odevixibat): 9.89
Cmax, clinical drug concentration ([3]; 120 μg/kg/day cohort study, ref FDA (URL EMA Bylvay product information)): Odevixibat clinical drug concentration in the 120 μg/kg/day cohort study: Cmax = 0.62 ng/ml.

pIC50 [1]: 5.41 and 5.44
Structure (SMILES): CCCCC1(CCCC)CN(c2ccccc2)c2cc(SC)c(OCC(=O)N[C@@H](C(=O)NCC(=O)O)c3ccccc3)cc2S(=O)(=O)C1 [elobixibat]
pIC50 ([2]; ref PMDA Goofice Report on the Deliberation Results): 9.28
IC50 ratio for ASBT versus NTCP inhibition ([2]; reported by the PMDA, ref PMDA): 0.0022
Cmax, clinical drug concentration ([3]; 15 mg cohort study, ref PMDA Goofice report): Elobixibat clinical drug concentration in the 15 mg cohort study: Cmax = 0.39 ng/ml.
